Assays:
[1] = xn = mol fraction of the nth substance listed; details: 298.15 K, 101 kPa, Liquid
[2] = excess molar enthalpy (molar enthalpy of mixing); xn = mol fraction of the nth substance listed; details: 298.15 K, 101 kPa, Liquid

ClCCCCCCl [1,5-dichloropentane] + CCCCOC(=O)CC
[1]
Details | mass density [kg/m3]
x2 = 0.0528 | 1081.66
x2 = 0.1047 | 1068.55
x2 = 0.1575 | 1055.43
x2 = 0.2116 | 1042.24
x2 = 0.3217 | 1016.04
x2 = 0.3799 | 1002.5
x2 = 0.4359 | 989.71
x2 = 0.5529 | 963.57
x2 = 0.6167 | 949.63
x2 = 0.6773 | 936.67
x2 = 0.7411 | 923.24
x2 = 0.8045 | 910.15
x2 = 0.8667 | 897.51
x2 = 0.9333 | 884.23

ClCCCCCl [1,4-dichlorobutane] + CCCCOC=O
Details | excess molar enthalpy [kcal/mol] | mass density [kg/m3]
[1], x2 = 0.0582 | – | 1119.16
[1], x2 = 0.1167 | – | 1104.56
[1], x2 = 0.1724 | – | 1090.7
[1], x2 = 0.2316 | – | 1075.99
[1], x2 = 0.286 | – | 1062.54
[1], x2 = 0.345 | – | 1047.97
[1], x2 = 0.4055 | – | 1033.06
[1], x2 = 0.522 | – | 1004.48
[1], x2 = 0.5808 | – | 990.11
[1], x2 = 0.6408 | – | 975.5
[1], x2 = 0.6992 | – | 961.32
[1], x2 = 0.76 | – | 946.59
[1], x2 = 0.8183 | – | 932.5
[1], x2 = 0.8774 | – | 918.24
[1], x2 = 0.9363 | – | 904.07
[2], x2 = 0.049 | 0.00688 | –
[2], x2 = 0.1112 | 0.0112 | –
[2], x2 = 0.1816 | 0.0137 | –
[2], x2 = 0.2472 | 0.0151 | –
[2], x2 = 0.3099 | 0.0138 | –
[2], x2 = 0.3701 | 0.0111 | –
[2], x2 = 0.4257 | 0.00784 | –
[2], x2 = 0.4725 | 0.00366 | –
[2], x2 = 0.5121 | 7.17e-05 | –
[2], x2 = 0.5471 | -0.00237 | –
[2], x2 = 0.5819 | -0.00519 | –
[2], x2 = 0.6245 | -0.00827 | –
[2], x2 = 0.6718 | -0.0104 | –
[2], x2 = 0.7351 | -0.0123 | –
[2], x2 = 0.8039 | -0.0108 | –
[2], x2 = 0.8728 | -0.00805 | –
[2], x2 = 0.9412 | -0.00421 | –

CCCCOC(=O)CCC [butyl butanoate] + ClCCCl
[1]
Details | mass density [kg/m3]
x1 = 0.0297 | 1221.83
x1 = 0.0605 | 1198.84
x1 = 0.0933 | 1176.2
x1 = 0.1275 | 1153.91
x1 = 0.1649 | 1131.5
x1 = 0.2054 | 1109
x1 = 0.2498 | 1086.2
x1 = 0.2967 | 1064.01
x1 = 0.3484 | 1041.64
x1 = 0.4037 | 1019.73
x1 = 0.4652 | 997.47
x1 = 0.5324 | 975.45
x1 = 0.605 | 953.73
x1 = 0.6862 | 931.87
x1 = 0.7785 | 909.66
x1 = 0.8821 | 887.38

CCCCOC=O [butyl methanoate] + ClCCCl
Details | excess molar enthalpy [kcal/mol] | mass density [kg/m3]
[1], x1 = 0.0423 | – | 1223.68
[1], x1 = 0.0859 | – | 1202
[1], x1 = 0.1303 | – | 1180.75
[1], x1 = 0.1772 | – | 1159.35
[1], x1 = 0.2251 | – | 1138.25
[1], x1 = 0.2748 | – | 1117.45
[1], x1 = 0.3271 | – | 1096.31
[1], x1 = 0.382 | – | 1075.28
[1], x1 = 0.4376 | – | 1054.83
[1], x1 = 0.497 | – | 1034.05
[1], x1 = 0.5604 | – | 1012.84
[1], x1 = 0.6255 | – | 992.02
[1], x1 = 0.6925 | – | 971.62
[1], x1 = 0.7638 | – | 950.97
[1], x1 = 0.8379 | – | 930.45
[1], x1 = 0.9173 | – | 909.53
[2], x1 = 0.0384 | 0.00172 | –
[2], x1 = 0.0884 | 0.000765 | –
[2], x1 = 0.1406 | -0.00378 | –
[2], x1 = 0.2002 | -0.0103 | –
[2], x1 = 0.254 | -0.018 | –
[2], x1 = 0.3052 | -0.026 | –
[2], x1 = 0.35 | -0.0329 | –
[2], x1 = 0.3874 | -0.0387 | –
[2], x1 = 0.4396 | -0.0436 | –
[2], x1 = 0.4751 | -0.0469 | –
[2], x1 = 0.5277 | -0.049 | –
[2], x1 = 0.5938 | -0.0454 | –
[2], x1 = 0.6645 | -0.0433 | –
[2], x1 = 0.741 | -0.0382 | –
[2], x1 = 0.8303 | -0.029 | –
[2], x1 = 0.9138 | -0.0176 | –
